Measurements published in patent publication US10450292B2, “Inhibitors of bacterial RNA polymerase: arylpropanoyl, arylpropenoyl, and arylcyclopropanecarboxyl phloroglucinols” (Rutgers, The State University of New Jersey, priority 2015, dated 2019).
Converted amounts (≈) assume the structure as drawn.

Assays:
[1] = test system: Escherichia coli D21f2tolC; assay: microbe, parasite or virus in culture; details: 16 h, read-out: MIC E. coli D21f2tolC, Mueller-Hinton II agar, 16 h at 37° C.
[2] = test system: Enterococcus faecalis ATCC 19433; assay: Inhibition of bacterial growth in culture, spiral gradient endpoint assay (MIC); type: cell-based; details: Enterococcus faecalis, ATCC 19433 /, 16 h, read-out: MIC E. faecalis, Mueller-Hinton II agar, 16 h at 37° C.
Source text: J. Microbiol. Meths. […] Int. J. Exp. Clin. Chemother. […] Adv.

[3] = test system: Staphylococcus aureus ATCC 12600; assay: as above; details: Staphylococcus aureus, ATCC12600, 16 h, read-out: MIC S. aureus 12600, Mueller-Hinton II agar, 16 h at 37° C.

Structure (SMILES)	MIC [1] [µg/mL]	MIC [2] [µg/mL]	MIC [3] [µg/mL]
O=C(c1c(O)cc(O)c(Cl)c1O)C1CC1c1ccc(Cl)cc1C(F)(F)F (stereo not drawn) [Example 54, (3-chloro-2,4,6-trihydroxyphenyl)(2-(4-chloro-2-(trifluoromethyl)phenyl)cyclopropyl)methanone]	17 (≈ 41.8 µM)	17 (≈ 41.8 µM)	12 (≈ 29.5 µM)
O=C(/C=C/c1ccc(Oc2ccccc2)cc1C(F)(F)F)c1c(O)cc(O)cc1O [Example 15, (E)-3-(4-phenoxy-2-(trifluoromethyl)phenyl)-1-(2,4,6-trihydroxyphenyl)prop-2-en-1-one]	1.8 (≈ 4.32 µM)	3.6 (≈ 8.65 µM)	3.2 (≈ 7.69 µM)
O=C(c1c(O)cc(O)c(Cl)c1O)C1CC1c1ccc(Cl)cc1 (stereo not drawn) [Example 55, (3-chloro-2,4,6-trihydroxyphenyl)(2-(4-chlorophenyl)cyclopropyl)methanone]	> 40	22 (≈ 64.9 µM)	17 (≈ 50.1 µM)
O=C(/C=C/c1ccc(Oc2ccc(F)cc2)cc1)c1c(O)cc(O)c(Cl)c1O [Example 48, (E)-1-(3-chloro-2,4,6-trihydroxyphenyl)-3-(4-(4-fluorophenoxy)phenyl)prop-2-en-1-one]	20 (≈ 49.9 µM)	> 40	> 40
Cc1cc(Oc2ccccc2)ccc1CCC(=O)c1c(O)cc(O)c(Cl)c1O [Example 41, 1-(3-chloro-2,4,6-trihydroxyphenyl)-3-(2-methyl-4-phenoxyphenyl)propan-1-one]	9.4 (≈ 23.6 µM)	19 (≈ 47.6 µM)	19 (≈ 47.6 µM)
O=C(c1c(O)cc(O)cc1O)C1CC1c1ccc(Cl)cc1C(F)(F)F (stereo not drawn) [Example 47, (2-(4-chloro-2-(trifluoromethyl)phenyl)cyclopropyl)(2,4,6-trihydroxyphenyl)methanone]	4.8 (≈ 12.9 µM)	9.6 (≈ 25.8 µM)	9.6 (≈ 25.8 µM)
O=C(CCc1ccc(Oc2ccc(Cl)cc2)cc1C(F)(F)F)c1c(O)cc(O)cc1O [Example 23, 3-(4-(4-chlorophenoxy)-2-(trifluoromethyl)phenyl)-1-(2,4,6-trihydroxyphenyl)propan-1-one]	1.7 (≈ 3.75 µM)	1.7 (≈ 3.75 µM)	1.1 (≈ 2.43 µM)
O=C(c1c(O)cc(O)cc1O)C1CC1c1ccc(Oc2ccc(F)cc2F)cc1 (stereo not drawn) [Example 43, (2-(4-(2,4-difluorophenoxy)phenyl)cyclopropyl)(2,4,6-trihydroxyphenyl) methanone]	2.8 (≈ 7.03 µM)	8.4 (≈ 21.1 µM)	6.6 (≈ 16.6 µM)
O=C(/C=C/c1ccc(Oc2ccc(C(F)(F)F)cc2)cc1)c1c(O)cc(O)cc1O [Example 28, (E)-3-(4-(4-(trifluoromethyl)phenoxy)phenyl)-1-(2,4,6-trihydroxyphenyl)prop-2-en-1-one]	2.4 (≈ 5.76 µM)	6.5 (≈ 15.6 µM)	3.1 (≈ 7.45 µM)
O=C(c1c(O)cc(O)c(Cl)c1O)C1CC1c1ccc(Oc2ccc(F)cc2)cc1 (stereo not drawn) [Example 46, (3-chloro-2,4,6-trihydroxyphenyl)(2-(4-(4-fluorophenoxy)phenyl)cyclopropyl)methanone]	6.6 (≈ 15.9 µM)	12 (≈ 28.9 µM)	9.6 (≈ 23.1 µM)
CCCC1(CCC)C(=O)C(C(=O)C2CC2c2ccc(Oc3ccc(F)cc3)cc2)=C(O)C=C1O (stereo not drawn) [Example 65, 2-(2-(4-(4-fluorophenoxy)phenyl)cyclopropanecarbonyl)-3,5-dihydroxy-6,6-dipropylcyclohexa-2,4-dienone]	> 40	1.9 (≈ 4.09 µM)	1.9 (≈ 4.09 µM)
Cc1cc(Oc2ccccc2)ccc1/C=C/C(=O)c1c(O)cc(O)cc1O [Example 31, (E)-3-(2-methyl-4-phenoxyphenyl)-1-(2,4,6-trihydroxyphenyl)prop-2-en-1-one]	1.4 (≈ 3.86 µM)	9.6 (≈ 26.5 µM)	5.8 (≈ 16 µM)
O=C(CCc1ccc(Oc2ccc(F)cc2)cc1)c1c(O)cc(O)cc1O [Example 10, 3-(4-(4-fluorophenoxy)phenyl)-1-(2,4,6-trihydroxyphenyl)propan-1-one]	1.5 (≈ 4.07 µM)	5.1 (≈ 13.8 µM)	3.1 (≈ 8.42 µM)
O=C(c1c(O)cc(O)cc1O)C1CC1c1ccc(Cl)cc1 (stereo not drawn) [Example 2, (2-(4-chlorophenyl)cyclopropyl)(2,4,6-trihydroxyphenyl)methanone]	9.3 (≈ 30.5 µM)	12 (≈ 39.4 µM)	12 (≈ 39.4 µM)
Cc1ccc(CCC(=O)c2c(O)cc(O)cc2O)s1 [Example 1, 3-(5-methylthiophen-2-yl)-1-(2,4,6-trihydroxyphenyl)propan-1-one]	24 (≈ 86.2 µM)	> 40	32 (≈ 115 µM)
Cc1cc(Oc2ccc(Cl)cc2)ccc1/C=C/C(=O)c1c(O)cc(O)cc1O [Example 18, (E)-3-(4-(4-chlorophenoxy)-2-methylphenyl)-1-(2,4,6-trihydroxyphenyl)prop-2-en-1-one]	1.1 (≈ 2.77 µM)	2.4 (≈ 6.05 µM)	1.3 (≈ 3.28 µM)

Structure (SMILES)	MIC [1] [µg/mL]	MIC [2] [µg/mL]	MIC [3] [µg/mL]
O=C(CCc1ccc(Oc2ccccc2)cc1C(F)(F)F)c1c(O)cc(O)cc1O [Example 16, 3-(4-phenoxy-2-(trifluoromethyl)phenyl)-1-(2,4,6-trihydroxyphenyl)propan-1-one]	1.3 (≈ 3.11 µM)	1.8 (≈ 4.3 µM)	1.1 (≈ 2.63 µM)
CCCC1=C(O)C(CCC)(CCC)C(=O)C(C(=O)CCc2ccc(Oc3ccc(F)cc3)cc2)=C1O [Example 64, 2-(3-(4-(4-fluorophenoxy)phenyl)propanoyl)-3,5-dihydroxy-4,6,6-tripropylcyclohexa-2,4-dienone]	0.34 (≈ 0.687 µM)	0.34 (≈ 0.687 µM)	0.26 (≈ 0.526 µM)
Cc1cc(Oc2ccccc2)ccc1CCC(=O)c1c(O)cc(O)cc1O [Example 33, 3-(2-methyl-4-phenoxyphenyl)-1-(2,4,6-trihydroxyphenyl)propan-1-one]	1.6 (≈ 4.39 µM)	7.5 (≈ 20.6 µM)	4.6 (≈ 12.6 µM)
Cc1cc(Oc2ccc(F)cc2)ccc1C1CC1C(=O)c1c(O)cc(O)cc1O (stereo not drawn) [Example 36, (2-(4-(4-fluorophenoxy)-2-methylphenyl)cyclopropyl)(2,4,6-trihydroxyphenyl)methanone]	1.7 (≈ 4.31 µM)	4.4 (≈ 11.2 µM)	2.4 (≈ 6.09 µM)
O=C(c1c(O)cc(O)cc1O)C1CC1c1ccc(C(F)(F)F)cc1C(F)(F)F (stereo not drawn) [Example 57, (2-(2,4-bis(trifluoromethyl)phenyl)cyclopropyl)(2,4,6-trihydroxyphenyl)methanone]	3.5 (≈ 8.61 µM)	5.7 (≈ 14 µM)	4.3 (≈ 10.6 µM)
Cc1cc(Oc2ccc(F)cc2)ccc1C1CC1C(=O)c1c(O)cc(O)c(Cl)c1O (stereo not drawn) [Example 52, (3-chloro-2,4,6-trihydroxyphenyl)(2-(4-(4-fluorophenoxy)-2-methylphenyl)cyclopropyl)methanone]	7.5 (≈ 17.5 µM)	5.2 (≈ 12.1 µM)	3.2 (≈ 7.46 µM)
O=C(CCc1ccc(Oc2ccc(F)cc2)cc1C(F)(F)F)c1c(O)cc(O)cc1O [Example 37, 3-(4-(4-fluorophenoxy)-2-(trifluoromethyl)phenyl)-1-(2,4,6-trihydroxyphenyl)propan-1-one]	2.4 (≈ 5.5 µM)	4.4 (≈ 10.1 µM)	3.5 (≈ 8.02 µM)
CC1=C(O)C(C)(C)C(=O)C(C(=O)C2CC2c2ccc(Oc3ccc(F)cc3)cc2C)=C1O (stereo not drawn) [Example 75, 2-(2-(4-(4-fluorophenoxy)-2-methylphenyl)cyclopropanecarbonyl)-3,5-dihydroxy-4,6,6-trimethylcyclohexa-2,4-dienone]	5.1 (≈ 11.7 µM)	> 40	17 (≈ 38.9 µM)
CCC1=C(O)C(CC)(CC)C(=O)C(C(=O)CCc2ccc(Oc3ccc(F)cc3)cc2C(F)(F)F)=C1O [Example 73, 4,6,6-triethyl-2-(3-(4-(4-fluorophenoxy)-2-(trifluoromethyl)phenyl)propanoyl)-3,5-dihydroxycyclohexa-2,4-dienone]	1.2 (≈ 2.31 µM)	1.6 (≈ 3.07 µM)	1.5 (≈ 2.88 µM)
Cc1cc(Oc2ccc(Cl)cc2)ccc1CCC(=O)c1c(O)cc(O)cc1O [Example 24, 3-(4-(4-chlorophenoxy)-2-methylphenyl)-1-(2,4,6-trihydroxyphenyl)propan-1-one]	1.1 (≈ 2.76 µM)	3 (≈ 7.52 µM)	1.8 (≈ 4.51 µM)
CCCC1=C(O)C(CCC)(CCC)C(=O)C(C(=O)C2CC2c2ccc(C(F)(F)F)cc2)=C1O (stereo not drawn) [Example 91, 3,5-dihydroxy-4,6,6-tripropyl-2-(2-(4-(trifluoromethyl)phenyl)cyclopropanecarbonyl)cyclohexa-2,4-dienone]	0.66 (≈ 1.42 µM)	0.41 (≈ 0.883 µM)	0.36 (≈ 0.775 µM)
O=C(CCc1ccc(Oc2ccc(F)cc2)cc1)c1c(O)cc(O)c(Cl)c1O [Example 45, 1-(3-chloro-2,4,6-trihydroxyphenyl)-3-(4-(4-fluorophenoxy)phenyl)propan-1-one]	5.2 (≈ 12.9 µM)	11 (≈ 27.3 µM)	9.6 (≈ 23.8 µM)
CCCC1(CCC)C(=O)C(C(=O)CCc2ccc(Oc3ccc(F)cc3)cc2)=C(O)C=C1O [Example 63, 2-(3-(4-(4-fluorophenoxy)phenyl)propanoyl)-3,5-dihydroxy-6,6-dipropylcyclohexa-2,4-dienone]	2.4 (≈ 5.3 µM)	> 40	5.1 (≈ 11.3 µM)
CC1=C(O)C(C)(C)C(=O)C(C(=O)C2CC2c2ccc(Oc3ccc(F)cc3)cc2C(F)(F)F)=C1O (stereo not drawn) [Example 85, 2-(2-(4-(4-fluorophenoxy)-2-(trifluoromethyl)phenyl)cyclopropanecarbonyl)-3,5-dihydroxy-4,6,6-trimethylcyclohexa-2,4-dienone]	4 (≈ 8.16 µM)	> 40	12 (≈ 24.5 µM)
O=C(/C=C/c1ccc(Oc2ccccn2)cc1)c1c(O)cc(O)cc1O [Example 6, (E)-3-(4-(pyridin-2-yloxy)phenyl)-1-(2,4,6-trihydroxyphenyl)prop-2-en-1-one]	> 40	> 40	> 40
CCC1=C(O)C(CC)(CC)C(=O)C(C(=O)C2CC2c2ccc(Cl)cc2C(F)(F)F)=C1O (stereo not drawn) [Example 84, 2-(2-(4-chloro-2-(trifluoromethyl)phenyl)cyclopropanecarbonyl)-4,6,6-triethyl-3,5-dihydroxycyclohexa-2,4-dienone]	0.44 (≈ 0.963 µM)	2.1 (≈ 4.6 µM)	1.3 (≈ 2.85 µM)
